From article PMC5856786, “A DHODH inhibitor increases p53 synthesis and enhances tumor cell killing by p53 degradation blockage” (Nature Communications, 2018)

Columns and labels:
protein kinases = assay: Radioactive filter-binding assays, panel of 140 kinases (Supplementary Table 2); assay type: biochemical
Method: Supplementary Table 2. In vitro inhibition (% remaining activity) of protein
free assays. Screening was performed by the International Centre for Kinase Profiling
(Dundee, UK) using radioactive ( P-ATP) filter-binding assays.
(1 picture or pasted object on this page, not shown here)

nucleoli in HCT116 cells = assay: Immunofluorescence of nucleolin and p53; assay type: cell-based; settings: Supplementary Fig. 4a
Method: (§1) Protein extracts were prepared in 1× LDS sample buffer (Invitrogen) with 100 mM DTT and separated and transferred using the Invitrogen western blotting system except in Supplementary Fig. 1c where the BioRad western blotting system was used. HRP-conjugated secondary antibodies were obtained from Dako (#P016102 and #P0211702) or Santa Cruz (#SC-2020). Immunofluorescence was performed by fixing cells in 4% paraformaldehyde freshly made in PBS for 10 min at 37 °C. Following fixation, cells were permeabilized in 0.15% Triton X-100 for 1–2 min at 37 °C followed by staining with the indicated antibodies. Images were taken using Olympus IX-71 microscope controlled by DeltaVision SoftWoRx. Image stacks were deconvolved, quick-projected and saved as tiff images to be processed using Adobe Photoshop. Antibodies to specific antigens are listed in Supplementary Table 8. All original films for blots in Fig. 1 are shown in Supplementary Figs. 9–12.
Cells were fixed in 4 % paraformaldehyde made in PBS followed by 10 min at 37 °C, permeabilization in 0.15 % Triton X-100 for 1-2 min at 37 °C, and staining with antibodies against nucleolin and p53. Images were taken using Olympus IX-71 microscope controlled by Delta Vision SoftWorx. Image stacks were deconvolved, quick-projected and saved as tiff images to be processed using Adobe PhotoShop. […]
was extracted and quantified. […]

[1] = tested on: DNA damage response markers in ARN8 cells; assay: Western blotting of DNA damage response markers; assay type: cell-based, human
Method: as §1, with “Image stacks were deconvolved, quick-projected and saved as tiff images to be processed using Adobe Photoshop. Antibodies to specific antigens are listed in Supplementary Table 8. All original films for blots in Fig. 1 are shown in Supplementary Figs. 9–12.” left out
Protein levels were analyzed by western blotting and relative p53 levels quantified using […]
for 1 h prior to the addition of hydroxyurea (HU) or vehicle control for a further 3 h and analyzed by western blotting. gapdh was used as loading control. d) ARN8 cells were treated […]
(Sigma, #N9162) for a further 2 h. Samples were lysed in 2 × LDS buffer (Invitrogen) and levels of P-ATM and ATM determined. α-tubulin was detected for loading control. e) ARN8 […]
of NCS for a further 2 h. Samples were lysed as in d) and levels of P-Ser15 p53 and γ-H2AX were determined. gapdh was used as loading control. f−g) ARN8 cells were treated with […]
(Ser 345) and chk1 were detected. […]

HNDF cells = assay: PI flow cytometry, sub-G1 cells, HNDF; assay type: cell-based, human
Method: (§2) Cell cycle distribution analysis was performed on a Becton Dickinson FACScan flow cytometer or FACSCalibur (BD Biosciences) following staining with propidium iodide (PI) or dual labeling with BrdU and PI[36]. These assays were analyzed using CellQuest Pro (BD Biosciences).

MV411 cells = assay: PI flow cytometry, sub-G1 cells, MV411; assay type: cell-based
Method: as §2

[2] = In vivo pharmacokinetic parameters of (R)-HZ05; parameters: species or system C57B1/6N mice; settings: female, C57B1/6N, mouse, plasma, sc, 50 mg kg-1; following subcutaneous administration (Supplementary Fig. 7b); read-out: half-life (converted)
Method: Waters Acquity UPLC (Waters Corp.) was used for all LC/MS and LC/MS/MS experiments. For chromatographic separation a general gradient was used (5 % mobile phase B to 90 % over 2 min total run) on a C18 BEH 1.7 µm column 2 × 50 mm (Waters Corp.). Mobile phase A consisted of 5 % acetonitrile 0.1 % formic acid and mobile phase B 100 % acetonitrile 0.1 % formic acid. The flow rate was 0.5 mL min-1 and 3 µL of the sample was injected. A standard curve between 3−1000 nM was prepared for each compound. […]
In vivo Pharmacokinetic Parameter Determination
(R)-HZ05 was formulated for subcutaneous and oral administration at 5 mg mL-1 in 20 % hydroxypropyl-β-cyclodextrin in PBS and formulated at 5 mg mL-1 diluted in physiological NaCl. […]
Blood was collected […]
in EDTA tubes from three mice per time point and stored on ice with plasma separated within 30 min by centrifugation at 2000 g and stored at –80 ° C until analysis at 0.08, 0.25, 0.5, 1, 2, 3, 4, 6 and 24 h post administration. […] internal standard (9 nM warfarin) was added to each plasma sample and each sample was shaken at RT for 10 min followed by centrifugation at 2000 g for 30 min at 4 °C. […] of sample was injected into an Acquity UPLC coupled to a triple quadrupole mass spectrometer (Waters) operated in MRM mode with positive electrospray ionization. MRM transition 381.09 > […]
CV and 40 V for CE) as a qualifier ion. Transition for internal standard was 309.16 > 163.005 (22 V for CV and 14 V for CE). Ion source conditions were: capillary voltage, 2000 V; desolvation temperature, 500 °C; desol vation gas flow rate, 1000 L h-1. Separation was conducted using a BEH C18 column (2.1 × 50 mm, 1.7 µm, Waters) using a linear gradient: 0 – 0.5 min, 5 % B; […], 100 % B, 1.61–2.00 min, 5 % B. Mobile phase A was 5 % acetonitrile with 0.1 % formic acid and B […]
All animal experimentation was carried out by Sweden
Contract In vivo Design AB in compliance with 2010/63/EU directive and approved by Stockholms Norra Djurförsöksetiska Nämnd (laboratory animal eth ical committee Stockholm) with the approval number N61/15. Any single plasma concentration value deviated by >10 times from the other two values was excluded from the pharmacokinetic evaluation, but was included in the figure. […]

[3] = HZ05 1 μM 72 h + 48 h, 2 μM nutlin-3a last 48 h
[4] = HZ05 1 μM 72 h + 48 h, DMSO last 48 h

| Compound | inhibition of protein kinases (protein kinases) | effect on nucleoli (nucleoli in HCT116 cells) | induction of DNA damage response markers [1] | sub-G1 cells (HNDF cells; [3]) [%] | sub-G1 cells (HNDF cells; [4]) [%] | sub-G1 cells (HNDF cells; HZ05 1 μM, 72 h treatment) [%] | sub-G1 cells (HNDF cells; HZ05 2.5 μM, 72 h treatment) [%] | sub-G1 cells (MV411 cells; [3]) [%] | sub-G1 cells (MV411 cells; [4]) [%] | sub-G1 cells (MV411 cells; HZ05 1 μM, 72 h treatment) [%] | sub-G1 cells (MV411 cells; HZ05 2.5 μM, 72 h treatment) [%] | half-life [2] [h] |
| --- | --- | --- | --- | --- | --- | --- | --- | --- | --- | --- | --- | --- |
| O=C(NC1CCCc2c1cnn2-c1ccccc1F)c1ccccn1 (stereo not drawn) [HZ00] | did not detect inhibition | nucleoli were disrupted | did not observe any induction |  |  |  |  |  |  |  |  |  |
| O=C(NC1CCCc2c1cnn2-c1ccccc1F)c1onc2c1CCCC2 (stereo not drawn) [HZ05] |  |  |  | 1.9 | 2.2 | 1.9 | 2.9 | 65.4 | 30.2 | 5.5 | 6.2 | 2.5 |
